The text below walks through data of patent US20030181334A1, “Herbicidal method” (priority 2001, published 2003).

One series concerns Amaranthus retroflexus, Abutilon theophrasti, Alopecurus myosuroides, Avena fatua, Brassica rapa and Echinochloa crus-galli. The series is described as follows: Pre-emergence and post-emergence effect on weeds. It counts as in vivo. Conditions: 500 g/ha or less; pre- or post-emergence application; one or more of the weed species; two weeks after treatment. An excerpt: Pre-Emergence Effect on Weeds Seed of various broad-leaf and grass weed species were sown and compound of formula (I), dissolved in a mixture of acetone and water, was applied at a rate of 500 g/ha or less to the soil surface. The weed species used were Amaranthus retroflexus, Abutilon theophrasti, Alopecurus myosuroides, Avena fatua, Brassica rapa and Echinochloa crus-galli. Post-Emergence Effect on Weeds Seed of the weed species Amaranthus retroflexus, Abutilon theophrasti, Alopecurus myosuroides, Avena fatua, Brassica rapa and Echinochloa crus-galli were sown in soil and grown up to a 1-3 leaves stage. A post-emergence application of compound of formula (I), dissolved in a mixture of acetone and water, was applied at a rate of 500 g/ha or less. Two weeks after treatment in the above test methods, weed control was assessed as a percentage reduction in plant growth, in comparison with untreated control.
As to `N#Cc1cccc(Oc2cc(C#N)cc(C#N)c2)c1` [Compound 42, 5-(3-cyanophenoxy)isophthalonitrile], the “herbicidal activity (weed control assessed as percentage reduction in plant growth in comparison with untreated control)” value is “very good herbicidal activity”. Consider `N#Cc1cc(C#N)cc(Oc2cccc(OC(F)(F)C(F)F)c2)c1` [Compound 44, 5-(3-[1,1,2,2-tetrafluoroethoxy]phenoxy)isophthalonitrile], for which the “herbicidal activity (weed control assessed as percentage reduction in plant growth in comparison with untreated control)” value is on record as “very good herbicidal activity”. The same measure, in the same setting: for `N#Cc1cc(C#N)cc(Oc2cccc(Oc3ccnc(Cl)n3)c2)c1` [Compound 1, 5-[3-(2-chloropyrimidin-4-yloxy)phenoxy]isophthalonitrile] the value was “very good herbicidal activity”.

System in a further series: not given
Test: not given
Details: not given
With `N#Cc1cc(C#N)cc(Oc2nccc(Oc3cc(Cl)cc(Cl)c3)n2)c1` [Compound 83, 5-[4-(3,5-dichlorophenoxy)pyrimidin-2-yloxy] isophthalonitrile], the melting point (usually the temperature of the solid-liquid transition) was 156 °C. For `N#Cc1cc(C#N)cc(Oc2cccc(O)c2)c1` [Compound 49, 5-(3-hydroxyphenoxy)isophthalonitrile], the melting point is 143 °C.

Consider `N#Cc1cc(C#N)cc(Oc2ccnc(Oc3cc(Cl)cc(Cl)c3)n2)c1` [Compound 84, 5-[2-(3,5-dichlorophenoxy)pyrimidin-4-yloxy]isophthalonitrile], for which the melting point is 196 °C. On the same count and under the same terms, for `N#Cc1cc(C#N)cc(Oc2cccc(Oc3cc(C#N)cc(C#N)c3)c2)c1` [Compound 90, 5-[3-(3,5-dicyanophenoxy)phenoxy]isophthalonitrile] the value was 212 to 213 °C.
